Among the test systems are Malme-3M; M14; Hs-578T; NCI-H226; MOLT-4; NCI/ADR-RES; 786-0; OVCAR-8; U-251; MCF7; EKVX; SK-MEL-28; NCI-H522; RXF 393; CAKI-1; SK-MEL-2; COLO 205; CCRF-CEM; A498.
What all share (test): NCI-60 cell line screen, 48 h

This is an account of results in ChEMBL document CHEMBL1201862, “PubChem BioAssay data set” (2004).

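Briefly, cells in 96-well plates were exposed to five compound concentrations for 48 h, and endpoints were estimated by linear interpolation. GI50: concentration for 50% inhibition of growth.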 Active and inactive are the calls of the source. No stated cut-off is given here; in the data, active = GI50 up to about 1.1 µM and inactive = higher. Where a SMILES comes first, the peptide text is derived from it. The star is where a group is joined. Boc = CC(C)(C)OC(=O)* Bounds are passed on as bounds.

As to `CC1=C(/C=C/C(C)=C/C=C/C(C)=C/C(=O)OCC2OC(n3cc(F)c(=O)[nH]c3=O)CC2OC(=O)/C=C(C)/C=C/C=C(C)/C=C/C2=C(C)CCCC2(C)C)C(C)(C)CCC1` (configuration not stated), the GI50 in the test on Malme-3M was 7.43 µM (inactive); with M14, 3.81 µM (inactive); in the test with Hs-578T, 9.25 µM (inactive); in the test on NCI-H226, 37.8 µM (inactive); in the test with MOLT-4 it was 1.07 µM (active); with NCI/ADR-RES, 5.21 µM (inactive). In addition, the GI50 was 1.15 µM (inactive) in the test with 786-0; 1.71 µM (inactive) in the test on OVCAR-8; 4.15 µM (inactive) in the test on U-251; 0.225 µM (active) in the test with MCF7; > 54.3 µM (inactive) in the test on EKVX; 20.9 µM (inactive) in the test on SK-MEL-28. Besides, the GI50 in the test on NCI-H522 is 8.2 µM (inactive); with RXF 393 it was 22.3 µM (inactive); with CAKI-1 it was 0.959 µM (active); in the test with SK-MEL-2, 58.6 µM (inactive); in the test with COLO 205, 18.7 µM (inactive); in the test with CCRF-CEM, 0.684 µM (active).
As for `CCN1C(=O)/C(=C/Nc2ccccc2)S/C1=N/Nc1nc(-c2ccc(O)c(O)c2)cs1`, the GI50 in the test with Malme-3M was 6.19 µM (inactive); in the test on M14, 5.61 µM (inactive); in the test on Hs-578T, 96.2 µM (inactive); with NCI-H226, 51.5 µM (inactive); in the test on MOLT-4 it was 5.53 µM (inactive); in the test on NCI/ADR-RES, 3.61 µM (inactive). The GI50 is 23 µM (inactive) with 786-0; 5.07 µM (inactive) in the test on OVCAR-8; 6.56 µM (inactive) with U-251; 4 µM (inactive) in the test on MCF7; 16.9 µM (inactive) with EKVX; 7.59 µM (inactive) in the test on SK-MEL-28. Also, the GI50 was 3.66 µM (inactive) with NCI-H522; 3.39 µM (inactive) in the test with RXF 393; 31.8 µM (inactive) in the test on CAKI-1; 4.31 µM (inactive) with SK-MEL-2; 35.5 µM (inactive) in the test on COLO 205; 4.53 µM (inactive) in the test with CCRF-CEM.
For `COC(=O)C(C)NC(=O)C(CCSC)NC(=O)C(Cc1ccccc1)NC(=O)OC(C)(C)C` (stereo not drawn) (Boc-Phe-Met-Ala-OMe; configuration not given here), the GI50 with Malme-3M, in the test on M14, with Hs-578T, in the test on NCI-H226, in the test with MOLT-4 and with NCI/ADR-RES was > 100 µM (inactive) throughout. In addition, the GI50 in the test on 786-0, in the test with OVCAR-8, in the test with U-251, in the test with MCF7, in the test on SK-MEL-28 and in the test with NCI-H522 was > 100 µM (inactive) each time. For the same compound, the GI50 in the test with CAKI-1, with SK-MEL-2, in the test with COLO 205 and in the test on CCRF-CEM was > 100 µM (inactive) in each case.
`COC(=O)C(Cc1c(C2Nc3ccccc3C2CC(NC(C)=O)C(=O)OC)[nH]c2ccccc12)NC(C)=O` (configuration not stated): the GI50 with Malme-3M, in the test with M14, in the test on Hs-578T, in the test with NCI-H226, with MOLT-4 and in the test on NCI/ADR-RES was > 100 µM (inactive) each time. Besides, the GI50 in the test on 786-0, in the test on OVCAR-8, with U-251, in the test on EKVX, in the test with SK-MEL-28 and with NCI-H522 was > 100 µM (inactive) in each case. Also, the GI50 in the test with RXF 393, in the test with CAKI-1, in the test with SK-MEL-2, in the test on COLO 205, with CCRF-CEM and in the test on A498 was > 100 µM (inactive) each time.
As to `O=C1NCCCNCCCNCCCNC(=O)c2cccc1n2`, the GI50 in the test on Malme-3M, in the test with M14, with Hs-578T, with NCI-H226, with MOLT-4 and in the test on NCI/ADR-RES was > 100 µM (inactive) each time. Also, the GI50 with 786-0, in the test with OVCAR-8, with U-251, in the test on EKVX, in the test with SK-MEL-28 and with NCI-H522 was > 100 µM (inactive) each time. Also, the GI50 in the test on RXF 393 was 18.1 µM (inactive); with CAKI-1 it was > 100 µM (inactive); in the test on SK-MEL-2, 63.2 µM (inactive); in the test with COLO 205, > 100 µM (inactive); with CCRF-CEM it was > 100 µM (inactive).
Regarding `COc1c(C)c(C/C=C(\C)CCCCO[Si](C(C)C)(C(C)C)C(C)C)c(OC)c2ccccc12`, the GI50 in the test with M14 was > 100 µM (inactive); with Hs-578T it was > 100 µM (inactive); in the test with MOLT-4, 47.6 µM (inactive); in the test with NCI/ADR-RES, > 100 µM (inactive); in the test with 786-0 it was > 100 µM (inactive); in the test on OVCAR-8 it was > 100 µM (inactive). The GI50 in the test on U-251, in the test with MCF7, in the test with EKVX, in the test with NCI-H522, in the test on RXF 393 and in the test with CAKI-1 was > 100 µM (inactive) in each case. For the same compound, the results for the GI50 with SK-MEL-2, with COLO 205 and with CCRF-CEM were > 100 µM (inactive), > 100 µM (inactive) and 49 µM (inactive), respectively.
As for `Cc1cn(C2CC(OP(=O)(O)OCC3OC(n4c[n+]([BH2-]C#N)c5c(=O)[nH]c(N)nc54)CC3O)C(CO)O2)c(=O)[nH]c1=O` (configuration not stated), the GI50 in the test with Malme-3M, with M14, in the test with NCI-H226, in the test with MOLT-4, with NCI/ADR-RES and in the test with 786-0 was > 100 µM (inactive) throughout. The GI50 in the test on OVCAR-8, in the test on U-251, in the test with MCF7, in the test with EKVX, in the test with NCI-H522 and with RXF 393 was > 100 µM (inactive) throughout. The GI50 in the test on CAKI-1, in the test with SK-MEL-2, in the test with COLO 205, in the test on CCRF-CEM and in the test with A498 was > 100 µM (inactive) in each case.
For the compound `N=c1c2c(=S)n(-c3ccccc3)c(=S)n(-c3ccccc3)c2nc(SCCN2CCCC2)n1-c1ccccc1`, the GI50 in the test with Malme-3M was 2.17 µM (inactive); with M14 it was 1.6 µM (inactive); in the test on Hs-578T, 3.9 µM (inactive); with NCI-H226, 7.59 µM (inactive); with MOLT-4 it was 0.08 µM (active); in the test on NCI/ADR-RES it was 6.44 µM (inactive). Besides, the GI50 is 0.622 µM (active) in the test with 786-0; 2.01 µM (inactive) in the test on OVCAR-8; 2.52 µM (inactive) with U-251; 2.49 µM (inactive) in the test with EKVX; 3.69 µM (inactive) in the test with SK-MEL-28; 1.72 µM (inactive) with NCI-H522. Also, the GI50 with RXF 393 was 1.41 µM (inactive); with CAKI-1, 1.56 µM (inactive); in the test with SK-MEL-2 it was 5.94 µM (inactive); with COLO 205, 1.55 µM (inactive); with CCRF-CEM, 0.347 µM (active); in the test with A498, 11 µM (inactive).
Consider `O=C1C(Cl)=C(NCCc2ccc(O)cc2)C(=O)c2c(O)ccc(O)c21`, for which the GI50 is 1.88 µM (inactive) in the test with Malme-3M; > 10 µM (inactive) with M14; > 10 µM (inactive) with NCI-H226; > 10 µM (inactive) in the test with MOLT-4; 3.76 µM (inactive) in the test with NCI/ADR-RES; 9.46 µM (inactive) with 786-0. The GI50 in the test with OVCAR-8 is > 10 µM (inactive); in the test with U-251, > 10 µM (inactive); with MCF7, 4.13 µM (inactive); in the test with EKVX, > 10 µM (inactive); with NCI-H522, > 10 µM (inactive); in the test on CAKI-1, > 10 µM (inactive). The GI50 in the test with SK-MEL-2 is 8.28 µM (inactive); in the test on COLO 205, > 10 µM (inactive); in the test with CCRF-CEM, 4.34 µM (inactive).
`COC1CC(OC2C(C)OC(OC3C(C)OC(OC4C(C)OC(O[C@H]5CC[C@@]6(C)C(=CC[C@]7(O)[C@@H]6C[C@@H](OC(=O)/C=C(\C)C(C)C)[C@@]6(C)[C@]7(O)CC[C@@]6(O)C(C)=O)C5)CC4OC)CC3OC)CC2OC)OC(C)C1O` (some centres not stated): the GI50 in the test on Malme-3M, in the test on M14, in the test on Hs-578T, in the test with NCI-H226, in the test on MOLT-4 and in the test with NCI/ADR-RES was > 12.5 µM (inactive) in each case. The GI50 with 786-0, in the test with OVCAR-8, in the test on U-251, in the test on MCF7, in the test with EKVX and in the test on NCI-H522 was > 12.5 µM (inactive) in each case. Moreover, the GI50 in the test on CAKI-1, in the test with SK-MEL-2, in the test on COLO 205 and with CCRF-CEM was > 12.5 µM (inactive) each time.
Consider `CCC1OC2C(CC=C(C)C)=C3OC(C)(O)C(C)(CC)C(O)C3=C3OC(=O)C=C1C32` (configuration not stated), for which the GI50 with M14 was 30.8 µM (inactive); with NCI-H226 it was 55.1 µM (inactive); with MOLT-4 it was 24.5 µM (inactive); in the test on NCI/ADR-RES, 42.8 µM (inactive); with 786-0 it was 37.2 µM (inactive); in the test on U-251, 58.9 µM (inactive). Moreover, the GI50 in the test on MCF7 was 31.3 µM (inactive); in the test on EKVX, 35.6 µM (inactive); in the test on SK-MEL-28, 50.8 µM (inactive); in the test with CAKI-1, > 100 µM (inactive); with SK-MEL-2, 26.1 µM (inactive); with COLO 205 it was 29.9 µM (inactive). For the same compound, the GI50 in the test with CCRF-CEM is 33.6 µM (inactive); in the test on A498, > 100 µM (inactive).
